Legend:
[1] = test system: HEL; assay: Antiproliferative activity against human HEL cells assessed as cell viability after 72 hrs by CellTiter-Glo or CCK-8 assay; assay type: functional
[2] = test system: K562; assay: Induction of cell cycle arrest in human K562 cells assessed as accumulation at G0/G1-phase after 12 hrs by propidium iodide/RNase staining based flow cytometry; assay type: functional
[3] = target: Tyrosine-protein kinase Lck (Homo sapiens) (UniProt P06239); assay: Inhibition of partial length human wild type LCK expressed in bacterial expression system assessed as residual activity at 1 uM relative to control
Chain of Tyrosine-protein kinase Lck (Homo sapiens) (P06239 2-509 limits assumed): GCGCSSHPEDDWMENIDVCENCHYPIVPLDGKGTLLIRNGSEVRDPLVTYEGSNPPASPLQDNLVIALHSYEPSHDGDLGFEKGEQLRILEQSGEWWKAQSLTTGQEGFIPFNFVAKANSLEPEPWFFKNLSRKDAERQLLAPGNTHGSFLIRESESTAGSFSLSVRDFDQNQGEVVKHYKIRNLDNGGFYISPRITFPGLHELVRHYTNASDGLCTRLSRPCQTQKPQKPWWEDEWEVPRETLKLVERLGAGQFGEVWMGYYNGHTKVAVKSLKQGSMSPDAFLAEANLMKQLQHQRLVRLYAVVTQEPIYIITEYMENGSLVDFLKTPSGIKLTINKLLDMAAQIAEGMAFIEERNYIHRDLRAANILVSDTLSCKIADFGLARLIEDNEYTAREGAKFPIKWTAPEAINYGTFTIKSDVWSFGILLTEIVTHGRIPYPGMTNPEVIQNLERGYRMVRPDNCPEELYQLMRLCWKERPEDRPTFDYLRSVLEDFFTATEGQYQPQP

SMILES: CNc1nc(Nc2ccc(C)c(N)c2)ncc1C(=O)Nc1cc(NC(=O)c2cccc(C(F)(F)F)c2)ccc1C
- GI50 [1]: > 10 µM
- Activity [2]: Dose-dependent effect
- Activity [3]: 0.3%

Source: ChEMBL document CHEMBL3779840, “Discovery of 2-((3-Amino-4-methylphenyl)amino)-N-(2-methyl-5-(3-(trifluoromethyl)benzamido)phenyl)-4-(methylamino)pyrimidine-5-carboxamide (CHMFL-ABL-053) as a Potent, Selective, and Orally Available BCR-ABL/SRC/p38 Kinase Inhibitor for Chronic Myeloid Leukemia” (J Med Chem, 2016)
